Test results published in patent US20180251425A1, “2,3,5 TRISUBSTITUTED PYRROLE DERIVATIVES AS TOPOISOMERASE INHIBITORS AND THERAPEUTIC USES THEREOF” (UNIVERSITY OF MYSORE, priority 2015, published 2018).

Test system: Molt4
Experiment: Cytotoxicity (MTT / trypan blue) in Molt4 cells
Format: cell-based
Conditions: Homo sapiens, MOLT-4, read-out: Cytotoxicity IC 50 in μM (Cell lines) Molt4
Description: Human cancer cell lines, K562, MCF7, HeLa and HEK 293T were purchased from National Centre for Cell Science, Pune, India. Cells were grown in RPMI 1640/MEM/DMEM supplemented with 10% heat-inactivated fetal bovine serum (FBS), 100 U/mL of Penicillin, and 100 μg of streptomycin/mL and incubated at 37° C. in a humidified atmosphere containing 5% CO2.
Nalm6, Molt4 and Reh cells were provided by Dr. Sathees C. Raghavan, Department of Biochemistry, IISc, Bangalore. The cells were grown under the similar culture conditions as mentioned above.
The human T cell leukemia cell line Molt4, Human acute lymphoblastic leukemia (ALL) cell line Nalm6, Human acute myelocytic leukemia (AML) cell line Reh, chronic myelogenous leukemia (CML) cell line K562, Human breast adenocarcinoma cell lines like MCF7 and human kidney cell line HEK 293T (Human embryonic kidney cell line) were selected for the purpose of preliminary anticancer screening of newly synthesized compounds (ASR1 to ASR15). To check the cytotoxicity, trypan blue dye exclusion assays, MTT assay were employed as described earlier Further, Cell cycle analysis, Mitochondrial membrane potential, Annexin-V FITC staining assay were also performed in order to understand the mode of cell death after treatment with ASR6. Further, ASR6 was also tested for its ability to inhibit topoisomerase I and II activity in vitro.
Cytotoxic effect of the newly synthesized compounds against leukemic cells was assessed using 3-(4, 5-dimethyl-2-yl02, 5-diphenyl tetrazolium bromide (MTT) assay. After exposure of compound at different concentration (0.01, 0.1, 0.5, 1, 10, 50 and 100 μM) cells were harvested and transferred into 96 well plate, MTT (5 mg/ml) was added and incubate at 37° C. for 4 h and formazan crystals were dissolved by adding solubilizing agent (10% SDS and 50% dimethyl formamide) for 1 h, finally plate was read at 570 nm (Bio-Rad, USA). Results were represented as inhibition of percentage of cell proliferation in bar diagram (n=3) (FIGS. 1 A, C, E and G).
To determine the growth inhibitory activity of the drug, 0.5×10^5 cell/ml were plated in 24 well (Biofil, USA.) in 1 ml of complete medium and treated with various concentration of the compound to test, cells were stained with 0.4% trypan blue and counted on a hemocytometer after treatment with compounds at 48 and 72 h time point. Results were represented as number of viable cells/ml in bar diagram (FIGS. 1 B, D, F, and H) (n=3).

CCOC(=O)c1[nH]c(-c2ccc(Cl)cc2)cc1-c1cccnc1 [ASR6, Ethyl 5-(4-chlorophenyl)-3-(pyridin-3-yl)-1H-pyrrole-2-carboxylate]
IC50: 0.195 µM
